Measurements: patent EP0874630B1, “TOP[…] POISON AND BIS-DIOXY[…] COMBINATION THERAPY” (priority 1996, dated 1997)
Values joined by “and” are separate entries in the source; they are usually repeats but may differ in a detail not shown here. Identical values can stand only once. Like-named read-outs stand apart in the source and are kept apart here.

Assays:
[1] = tested on: Ehrlich's ascites tumour cells; test: Therapy study, mice inoculated i.p. with Ehrlich's ascites tumour cells (increase in life span); type: in vivo
Method: (§1) In therapy studies, mice were inoculated i.p. with either 10^5 L1210 leukemia cells or 15x10^6 Ehrlich's ascites tumour cells on day 0 and treated with drugs i.p. on day 4 after inoculation. The brain tumour model consisted of 10^4 L1210 cells or 15x10^4 Ehrlich's ascites tumour cells in a volume of 30 µl of isotonic sodium chloride inoculated on day 0 into the temporal region followed by treatment i.p. on day 2, 3 or 4 after inoculation.
(§2) 1×10^5 L1210 tumour cells or 15×10^6 Ehrlich's ascites tumour cells were inoculated i.p. on day 0 and mice were treated i.p. on day 4. The Mann Whitney test was used for statistical evaluation.

[2] = tested on: mice; details: mouse
Method: First generation hybrids of female random bred Swiss mice and male inbred DBA (NDF1-hybrid) mice were used as previously described (5). The mice weighed between 19 and 21 g at the start of the experiments. […] Lethality was recorded and surviving mice were sacrificed after 60 days. Toxicity was evaluated by weight and leucocyte counts. For weight evaluations mice were treated with drugs, marked and weighed for eleven consecutive days. Blood for leucocyte counts was obtained from a tail vein and counted in a hemocytometer on days 3, 5 and 7 after treatment.

[3] = tested on: L1210 leukemia cells; test: Therapy study, mice inoculated i.p. with L1210 leukemia cells (increase in life span); type: in vivo
Method: as §1, §2

[4] = tested on: mice; details: for increase in LD10 enabled by ICRF-187: LD10 of the topoisomerase II poison with ICRF-187 versus alone, mice
Description: Calculation of LD10 and LD50 using the maximum likelihood estimation. The 6 experiments in Table 2 are included in the computations.

[5] = tested on: mice; test: Lethality in healthy mice after drugs given once i.p., with or without ICRF-187 pretreatment (survivors/treated); type: in vivo; details: for survivors/treated: compiled data from two experiments
Method: Toxicity was evaluated by weight and leucocyte counts.
The compiled data from two experiments showing that paclitaxel induced lethality cannot be protected by pretreamtment with ICRF-187. Groups of 11 mice were treated once i.p. with or without pretreatment with ICRF-187.

[6] = NDF1 hybrid (female Swiss x male DBA), mouse, in vivo, ip, 60 days

C[C@@H](CN1CC(=O)NC(=O)C1)N1CC(=O)NC(=O)C1 [ICRF-187, (+)-1,2-bis(3,5-dioxopiperazinyl-1-yl)propane]
antitumour effect ([1]; ICRF-187 alone, mice inoculated i.p. with Ehrlich's ascites tumour): no antitumour effect
survivors/treated ([2]; NDF1 hybrid (female Swiss x male DBA), in vivo, 100 mg/kg, 60 days): 11/11
ICRF-187 mediated protection in vivo [2]: not obtained
antitumour effect ([3]; ICRF-187 alone, mice inoculated i.p. with L1210 tumour cells): no antitumour effect
LD10 [4, 6]: 500 mg/kg
LD90 [4, 6]: 1500 mg/kg

CC(=O)O[C@H]1C(=O)[C@@]2(C)[C@H]([C@H](OC(=O)c3ccccc3)[C@]3(O)C[C@H](OC(=O)[C@H](O)[C@@H](NC(=O)c4ccccc4)c4ccccc4)C(C)=C1C3(C)C)[C@]1(OC(C)=O)CO[C@@H]1C[C@@H]2O [Paclitaxel, paclitaxel]
Survivors/ treated, % ([5]; Paclitaxel 30 mg/kg alone): 100%
survivors/treated ([5]; Paclitaxel 30 mg/kg alone): 22/22
Survivors/ treated, % ([5]; Paclitaxel 40 mg/kg alone): 55%
survivors/treated ([5]; Paclitaxel 40 mg/kg alone): 12/22
Survivors/ treated, % ([5]; Paclitaxel 50 mg/kg alone): 0%
survivors/treated ([5]; Paclitaxel 50 mg/kg alone): 0/22

COc1cc([C@@H]2c3cc4c(cc3[C@@H](O[C@@H]3O[C@@H]5CO[C@@H](C)O[C@H]5[C@H](O)[C@H]3O)[C@H]3COC(=O)[C@H]23)OCO4)cc(OC)c1O [etoposide]
ILS(%) ([1]; Etoposide 33 mg/kg i.p. on day 4, 15×10^6 Ehrlich's ascites tumour cells i.p. on day 0): 53% and 40% and 35%
increased life span, ILS(%) (etoposide alone set to 100) ([1]; Table 5A, Etoposide 33 mg/kg, Ehrlich's tumour cells i.p.): 100%
ILS(%) ([3]; Etoposide 33 mg/kg i.p. on day 4, 1×10^5 L1210 tumour cells i.p. on day 0): 113% and 100% and 88%
increased life span, ILS(%) (etoposide alone set to 100) ([3]; Table 5B, Etoposide 33 mg/kg, L 1210 tumour cells i.p.): 100%
increase in LD10 enabled by ICRF-187 [4]: 3.6 fold
LD10 ([4]; dose of etoposide killing 10% of the mice, maximum likelihood estimation, 6 experiments of Table 2, combination with 125 mg/kg ICRF-187, 125 mg/kg): 34 mg/kg and 33 mg/kg
LD10 ([4]; dose of etoposide killing 10% of the mice, maximum likelihood estimation, 6 experiments of Table 2, combination with 125 mg/kg ICRF-187, listed as VP-16, 125 mg/kg): 34.0 mg/kg
log LD10 ([4]; maximum likelihood estimation on the 6 experiments of Table 2, combination with 125 mg/kg ICRF-187): 1.531

COc1cc([C@@H]2c3cc4c(cc3[C@@H](O[C@@H]3O[C@@H]5CO[C@@H](c6cccs6)O[C@H]5[C@H](O)[C@H]3O)[C@H]3COC(=O)[C@H]23)OCO4)cc(OC)c1O [teniposide]
increase in LD10 enabled by ICRF-187 [4]: 3.4 fold
